In publication PMC8018465, “Antimicrobial activities of a small molecule compound II-6s against oral streptococci” (Journal of Oral Microbiology, 2021):
Values after ≈ are worked out from the molar mass of the structure shown.

What was measured:
[1] = tested on: S. sanguinis; assay: Bacterial susceptibility assay (microdilution, planktonic); type: cell-based, Streptococcus sanguinis ATCC10556; conditions: Streptococcus sanguinis, BHI medium
Method: Streptococcus mutans UA159, Streptococcus gordonii DL1 and Streptococcus sanguinis ATCC10556 were obtained from the State Key Laboratory of Oral Diseases (Sichuan University, Chengdu, China). All strains were routinely cultured in brain heart infusion broth (BHI; Difco, Sparks, MD) under anaerobic conditions (5% CO2) at 37°C. For biofilm formation, bacteria were cultured in BHI broth supplied with 1% sucrose (designated BHIS).
The minimum inhibitory concentration (MIC) and minimum bactericidal concentration (MBC) of II-6s against S. mutans, S. gordonii, and S. sanguinis were measured by a microdilution method in BHI as described previously. The bacterial inoculum for the experiment was adjusted to 1 × 10^7 colony-forming units (CFU)/ml for S. mutans, S. gordonii, and S. sanguinis based on the optical density at 600 nm (OD600) versus a CFU/ml graph of each bacterium. Bacterial suspension was added to 96-well microtiter plates which were supplemented with serially diluted concentrations of II-6s ranging from 0.98 to 500 μg/ml. Each plate also included CHX ranging from 0.98 to 500 μg/ml as a positive control, test bacteria and BHI broth as a negative control, BHI broth containing equivalent DMSO (0.5% to 0.001%, ν/ν) as a solvent control and a blank control. […] The lowest concentration of the test solutions that allowed no visible growth on a BHI agar plate was taken as MBC. The experiment was performed in triplicates and repeated at least three times.

[2] = tested on: S. sanguinis biofilm; assay: Biofilm susceptibility assay (crystal violet); type: cell-based, Streptococcus sanguinis ATCC10556; conditions: 24 h; for MBIC: S. sanguinis biofilm formation, at least 90% inhibition; for MBRC: S. sanguinis one-day biofilm, at least 90% reduction
Method: (§1) Streptococcus mutans UA159, Streptococcus gordonii DL1 and Streptococcus sanguinis ATCC10556 were obtained from the State Key Laboratory of Oral Diseases (Sichuan University, Chengdu, China). All strains were routinely cultured in brain heart infusion broth (BHI; Difco, Sparks, MD) under anaerobic conditions (5% CO2) at 37°C. For biofilm formation, bacteria were cultured in BHI broth supplied with 1% sucrose (designated BHIS). The effect of II-6s on S. mutans, S. gordonii, and S. sanguinis biofilm was examined by the microdilution method described previously. S. mutans, S. gordonii, and S. sanguinis (1 × 10^7 CFU/ml) respectively, were cultured in BHIS broth and II-6s (0.98 to 500 μg/ml) in 96-well microtiter plates for 24 h. A parallel study was also performed with BHIS as a negative control. After incubation, the culture supernatant and agent were removed, and each well was gently washed three times with phosphate-buffered saline (PBS), then fixed the adherent biofilm was fixed with methanol for 15 min, and stained with 0.1% (wt/vol) crystal violet (Sigma) for 5 min. The excess crystal violet stain in each well was rinsed away with PBS until the blank control wells were colorless. Finally, 200 μl of 95% ethanol was added to each well to dissolve the crystal violet attached to the biofilm. The plate was shaken at room temperature for 30 min, and the absorbance at 595 nm was recorded. To examine the effects of II-6s on mature biofilm, bacterial suspensions were inoculated into a 96-well microtiter plate containing BHIS and incubated at 37°C for 24 h. After biofilm developed, the supernatant from each well was decanted and planktonic cells were removed by washing with sterile PBS. Fresh BHI broth containing II-6s (0.98 to 500 μg/ml) was added to the one-day biofilm, and the plate was further incubated for 24 h. The control wells contained BHIS broth without II-6s. Similarly, the biofilm was fixed, stained, washed, and quantified as described above. […] The experiment was performed in triplicates and repeated at least three times.

[3] = tested on: S. mutans; assay: Bacterial drug resistance assay (MIC after repeated passages); type: cell-based, Streptococcus mutans UA159; conditions: for change of MIC / induction of drug resistance after repeated exposure: 15 passages
Method: To examine whether S. mutans could develop drug resistance against II-6s, MIC measurements after repeated successive passages were performed to analyze the antimicrobial resistance, following a previous method. The MIC values of II-6s against S. mutans were tested as described above. After the initial MIC was determined, 20 µl of bacterial suspension in a well showing 1/2 MIC was mixed with 1,980 µl of BHI medium to eliminate the influence of residual drug. A volume of 50 µl of the resultant bacterial suspension was then inoculated onto a BHI agar plate followed by incubation at 37°C for 48 h. The colonies grown on the agar plate were again suspended in BHI broth. The overnight bacterial suspensions were diluted to a concentration of 1 × 10^7 CFU/ml for the next MIC test. The same procedure was repeatedly performed for 15 passages. An increase of four-fold or higher in MIC over the initial MIC was considered to be the standard for inducing resistance to an antibacterial agent. The assay was done in triplicates and repeated three times.

[4] = tested on: S. mutans biofilm; assay: Biofilm susceptibility assay (crystal violet); type: cell-based, Streptococcus mutans UA159; conditions: 24 h; for MBIC: S. mutans biofilm formation, at least 90% inhibition; for MBRC: S. mutans one-day biofilm, at least 90% reduction
Method: as §1

[5] = In vitro cytotoxicity assay (CCK-8); type: cell-based; conditions: mouse, RAW264.7 macrophages; RAW264.7, 5 min exposure
Method: (§2) The cytotoxicity of II-6s was evaluated by the Cell Counting Kit-8 (CCK-8; Dojindo, Kumamoto, Japan) assay as described by Park et al.. Human gingival epithelial cells (HGE), human oral keratinocytes (HOK) and macrophages RAW264.7 (RAW264.7) were provided by the State Key Laboratory of Oral Diseases, Sichuan University, China. HGE, HOK and RAW264.7 were grown in Dulbecco’s modified Eagle’s medium (DMEM; GibcoTM, Invitrogen, Carlsbad, CA, USA) supplemented with 10% fetal bovine serum (FBS; Invitrogen) and 1% penicillin–streptomycin solution (Invitrogen) and cultured at 37°C in a humidified atmosphere containing 5% CO2. All cells were inoculated into 96 well plates at a density of 1 × 10^4 cells per well for 24 h and then treated with II-6s (0.98 to 500 μg/ml) for 5 min or 24 h. The positive control was treated with CHX (0.98 to 500 μg/ml) at the same time. After treatment, the wells were washed with sterile PBS and fresh medium was added. 10 μl of CCK-8 solution (10 μl) was added to each well and incubated for 1.5 h. The absorbance of each well was measured at the wavelength of 450 nm against a blank which contained medium only. Cell viability was calculated according to the following formula: percent viability = (A450 of treated group − A450 of blank control)/(A450 of negative control − A450 of blank control) × 100%. The experiment was conducted in triplicates and repeated three times.

[6] = tested on: macrophages RAW264.7; assay: In vitro cytotoxicity assay (CCK-8); type: cell-based; conditions: RAW264.7, 24 h exposure
Method: as §2

[7] = tested on: methicillin-susceptible S. aureus; design: method as in PMID 30940910; conditions: cited from earlier work

SMILES | MBC [1] | MIC [1] | MBIC [2] | MBRC [2] | change of MIC / induction of drug resistance after repeated exposure [3] | MBIC [4] | MBRC [4] | IC50 at 5 min [5] | IC50 (cytotoxicity), compared with CHX [6] | antimicrobial activity against methicillin-susceptible S. aureus [7] | MIC ([3]; Streptococcus mutans, read-out: MIC against S. mutans during passaging)
[H]/N=C(\N/C(=N/[H])NCCCCCCNC(=N)NC(=N)Nc1ccc(Cl)cc1)Nc1ccc(Cl)cc1 [CHX, Chlorhexidine digluconate, reference compound] | 3.91 µg/mL | 0.49 µg/mL | 1.95 µg/mL | 3.91 µg/mL | increased by four times at the 15th passage | 0.98 µg/mL | 62.50 µg/mL | – | – | – | –
CC(C)(Cc1ccc2ccccc2c1)NC[C@H](O)CNc1cc(C(F)(F)F)cc(C(F)(F)F)c1 [II-6s, (S)-1-((3,5-bis(trifluoromethyl)phenyl)amino)-3-((2-methyl-1-(naphthalen-2-yl)propan-2-yl)amino)propan-2-ol] | 7.81 µg/mL (≈ 16.1 µM) | 1.95 µg/mL (≈ 4.02 µM) | 3.91 µg/mL | 3.91 µg/mL | did not induce drug resistance | 3.91 µg/mL | 62.50 µg/mL | > 125 µg/mL | higher than that of CHX | decent antimicrobial activity | 3.91 µg/mL (≈ 8.07 µM)
